According to ChEMBL document CHEMBL5096238 (J Med Chem, 2022):
pIC50: −log10 of the molar value.

How the values were obtained:
[1] = target: Hepatocyte growth factor receptor (Homo sapiens, UniProt P08581); assay: Inhibition of N-terminal His/SUMO tagged wild type human c-Met (1038 to 1346 residues) transfected in Escherichia coli using Tyr06 peptide as substrate incubated for 1 hr in presence of ATP by FRET-based Z'-Lyte assay
[2] = system: Hs746T; assay: cells; settings: Homo sapiens, 120 h
[3] = target: T1, Tyrosine-protein kinase receptor UFO (Homo sapiens, UniProt P30530); assay: Inhibition of AXL (unknown origin)
T1 sequence (P30530 whole entry): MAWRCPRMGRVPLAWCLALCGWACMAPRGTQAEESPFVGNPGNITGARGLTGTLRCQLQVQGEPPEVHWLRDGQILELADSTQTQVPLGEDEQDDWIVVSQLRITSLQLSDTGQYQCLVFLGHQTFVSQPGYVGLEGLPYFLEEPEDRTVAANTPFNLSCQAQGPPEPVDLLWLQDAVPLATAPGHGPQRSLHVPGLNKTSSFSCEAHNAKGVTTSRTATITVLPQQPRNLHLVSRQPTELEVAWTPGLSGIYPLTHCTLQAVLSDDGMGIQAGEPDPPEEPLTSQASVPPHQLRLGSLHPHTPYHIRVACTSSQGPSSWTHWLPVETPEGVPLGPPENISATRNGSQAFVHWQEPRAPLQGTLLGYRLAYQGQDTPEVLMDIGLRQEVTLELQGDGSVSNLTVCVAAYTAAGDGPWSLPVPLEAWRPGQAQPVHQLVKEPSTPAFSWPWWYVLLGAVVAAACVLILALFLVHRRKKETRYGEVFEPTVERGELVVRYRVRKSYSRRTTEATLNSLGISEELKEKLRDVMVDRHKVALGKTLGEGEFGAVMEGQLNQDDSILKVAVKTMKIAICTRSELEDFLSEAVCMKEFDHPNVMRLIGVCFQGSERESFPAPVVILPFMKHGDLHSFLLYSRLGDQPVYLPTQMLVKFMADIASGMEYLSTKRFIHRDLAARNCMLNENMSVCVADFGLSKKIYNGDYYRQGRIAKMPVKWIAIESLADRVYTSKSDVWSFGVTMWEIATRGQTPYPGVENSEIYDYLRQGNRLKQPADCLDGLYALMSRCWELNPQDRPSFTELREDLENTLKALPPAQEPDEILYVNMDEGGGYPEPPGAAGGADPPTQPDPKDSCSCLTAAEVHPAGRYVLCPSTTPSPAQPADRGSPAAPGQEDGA

[4] = Apparent permeability across apical to basolateral side in human Caco-2 cells at 10 uM incubated for 120 mins by LC-MS/MS analysis; assay type: ADME, cell-based
[5] = system: BaF3; assay: cells; settings: Mus musculus, BaF3, 72 h
[6] = system: BaF3; assay: cells; settings: Mus musculus, BaF3, 72 h; remark: listed apart in the source
[7] = system: BaF3; assay: cells; settings: Mus musculus, BaF3, 72 h; remark: listed apart in the source
[8] = system: BaF3; assay: cells; settings: Mus musculus, BaF3, 72 h; remark: listed apart in the source
[9] = system: BaF3; assay: cells; settings: Mus musculus, BaF3, 72 h; remark: listed apart in the source
[10] = system: BaF3; assay: cells; settings: Mus musculus, BaF3, 72 h; remark: listed apart in the source
[11] = system: BaF3; assay: cells; settings: Mus musculus, BaF3, 72 h; remark: listed apart in the source
[12] = system: BaF3; assay: cells; settings: Mus musculus, BaF3, 72 h; remark: listed apart in the source
[13] = system: AGS; assay: cells; settings: Homo sapiens, 120 h
[14] = system: SNU-16; assay: cells; settings: Homo sapiens, SNU-16, 120 h

Sequence of Hepatocyte growth factor receptor (P08581 whole entry, the tested form may be a part): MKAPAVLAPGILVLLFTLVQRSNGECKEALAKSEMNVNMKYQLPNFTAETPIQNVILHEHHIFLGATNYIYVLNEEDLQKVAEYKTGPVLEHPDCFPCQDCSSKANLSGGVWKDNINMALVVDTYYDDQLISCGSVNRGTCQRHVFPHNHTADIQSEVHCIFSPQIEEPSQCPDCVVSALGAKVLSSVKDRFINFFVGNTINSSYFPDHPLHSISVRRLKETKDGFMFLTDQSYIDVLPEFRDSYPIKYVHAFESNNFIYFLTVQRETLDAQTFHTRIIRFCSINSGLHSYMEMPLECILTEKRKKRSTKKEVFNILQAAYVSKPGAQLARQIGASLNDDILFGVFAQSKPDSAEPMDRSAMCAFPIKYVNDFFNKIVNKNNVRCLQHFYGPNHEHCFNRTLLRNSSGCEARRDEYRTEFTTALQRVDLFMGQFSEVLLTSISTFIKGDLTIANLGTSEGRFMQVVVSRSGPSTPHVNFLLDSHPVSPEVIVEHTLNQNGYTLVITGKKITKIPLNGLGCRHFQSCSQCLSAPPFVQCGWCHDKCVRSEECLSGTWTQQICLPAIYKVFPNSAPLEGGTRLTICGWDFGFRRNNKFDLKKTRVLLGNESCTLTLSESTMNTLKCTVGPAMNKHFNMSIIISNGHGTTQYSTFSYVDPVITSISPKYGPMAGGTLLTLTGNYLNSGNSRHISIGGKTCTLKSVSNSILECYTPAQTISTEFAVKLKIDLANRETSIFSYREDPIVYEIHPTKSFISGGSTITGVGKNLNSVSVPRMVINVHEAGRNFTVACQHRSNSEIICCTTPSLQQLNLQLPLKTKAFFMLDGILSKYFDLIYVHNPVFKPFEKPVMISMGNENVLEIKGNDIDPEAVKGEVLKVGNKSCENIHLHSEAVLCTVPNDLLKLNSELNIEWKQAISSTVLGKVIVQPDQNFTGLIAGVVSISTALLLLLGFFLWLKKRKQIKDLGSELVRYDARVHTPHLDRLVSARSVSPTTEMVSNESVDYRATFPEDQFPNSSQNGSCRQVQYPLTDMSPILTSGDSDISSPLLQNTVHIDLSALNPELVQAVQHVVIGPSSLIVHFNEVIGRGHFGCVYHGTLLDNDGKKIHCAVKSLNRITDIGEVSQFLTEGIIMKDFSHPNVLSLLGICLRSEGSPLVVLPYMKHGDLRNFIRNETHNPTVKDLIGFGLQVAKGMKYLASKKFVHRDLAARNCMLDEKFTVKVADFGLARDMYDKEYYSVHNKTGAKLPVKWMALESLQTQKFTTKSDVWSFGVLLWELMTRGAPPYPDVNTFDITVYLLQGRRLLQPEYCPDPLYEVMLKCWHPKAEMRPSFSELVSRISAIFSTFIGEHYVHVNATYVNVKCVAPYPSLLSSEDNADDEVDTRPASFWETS

Row | Structure (SMILES) | pIC50 [1] | pIC50 [2] | further results
1 | COC(=O)c1ccc(-c2ccc(=O)n(CCc3ccc4ncc(-c5cnn(C)c5)cc4c3)n2)cc1 | 8.12 | 5.72 | –
2 | CNC(=O)c1ccc(-c2ccc(=O)n(/C=C/c3ccc4ncc(-c5cnn(C)c5)cc4c3)n2)cc1C(F)(F)F | 7.45 | 5.52 | –
3 | Cn1cc(-c2cnc3ccc(CCn4nc(-c5cccc([N+](=O)[O-])c5)ccc4=O)cc3c2)cn1 | 7.82 | 6.48 | –
4 | Cn1cc(-c2cnc3ccc(CCn4nc(-c5cccc(Br)c5)ccc4=O)cc3c2)cn1 | 8.17 | 6.36 | –
5 | CNC(=O)c1ccc(-c2ccc(=O)n(CCc3ccc4ncc(-c5cn[nH]c5)cc4c3)n2)cc1C(F)(F)F | 8.17 | 6.97 | –
6 | CNC(=O)c1ccc(-c2ccc(=O)n(CCc3ccc4ncc(N5CCN(C)CC5)cc4c3)n2)cc1C(F)(F)F | 7.97 | 6.70 | –
7 | Cn1cc(-c2cnc3ccc(CCn4nc(-c5cccc(C(F)(F)F)c5)ccc4=O)cc3c2)cn1 | 8.27 | 6.95 | –
8 | Cn1cc(-c2cnc3ccc(CCn4nc(-c5cccc(F)c5)ccc4=O)cc3c2)cn1 | 7.97 | 6.40 | –
9 | Cn1cc(-c2cnc3ccc(CCn4nc(-c5ccc(F)cc5)ccc4=O)cc3c2)cn1 | 7.74 | 6.31 | –
10 | CNC(=O)c1ccc(-c2ccc(=O)n(CC(F)(F)c3ccc4ncc(-c5cnn(C)c5)cc4c3)n2)cc1C(F)(F)F | 8.00 | 7.41 | –
11 | Cn1cc(-c2cnc3ccc(CCn4nc(-c5ccccc5)ccc4=O)cc3c2)cn1 | 7.83 | – | –
12 | CNC(=O)c1ccc(-c2ccc(=O)n(CCOc3ccc4ncc(-c5cnn(C)c5)cc4c3)n2)cc1C(F)(F)F | 7.10 | 6.35 | –
13 | Cn1cc(-c2ccc(-c3ccc(=O)n(CCc4ccc5ncccc5c4)n3)cc2)cn1 | 6.18 | – | –
14 | Cn1cc(-c2cnc3ccc(CCn4nc(-c5cccc(N)c5)ccc4=O)cc3c2)cn1 | 8.06 | 6.21 | –
15 | CNC(=O)c1ccc(-c2ccc(=O)n(CCc3ccc4ncc(N5CC6CNCC6C5)cc4c3)n2)cc1C(F)(F)F (stereo not given) | 7.94 | 6.67 | –
16 | O=c1ccc(-c2ccccc2)nn1Cc1ccc2ncccc2c1 | < 5.00 | – | –
17 | Cn1cc(-c2cnc3ccc(CCn4nc(-c5cccc(Cl)c5)ccc4=O)cc3c2)cn1 | 8.31 | 6.52 | –
18 | O=c1ccc(-c2ccccc2)nn1CCc1ccc2ncc(N3CCOCC3)cc2c1 | 7.38 | – | –
19 | Cc1cccc(-c2ccc(=O)n(CCc3ccc4ncc(-c5cnn(C)c5)cc4c3)n2)c1 | 8.05 | 6.48 | –
20 | Cn1cc(-c2cnc3ccc(Cn4nc(-c5ccccc5)ccc4=O)cc3c2)cn1 | 6.86 | – | –
21 | Cn1cc(-c2cnc3ccc(CCn4nc(-c5cccc(C#N)c5)ccc4=O)cc3c2)cn1 | 7.98 | 6.89 | –
22 | Cn1cc(-c2cnc3ccc(CCn4nc(-c5cc(F)c(F)c(F)c5)ccc4=O)cc3c2)cn1 | 8.12 | 6.64 | –
23 | O=c1ccc(-c2ccc(N3CCOCC3)cc2)nn1Cc1ccc2ncccc2c1 | < 5.00 | – | –
24 | Cn1cc(-c2cnc3ccc(CCn4nc(-c5ccc(C(=O)O)c(C(F)(F)F)c5)ccc4=O)cc3c2)cn1 | 8.24 | 5.37 | –
25 | Cn1cc(-c2cnc3ccc(CCn4nc(-c5ccc(F)c(F)c5)ccc4=O)cc3c2)cn1 | 7.88 | 6.15 | –

Row | Structure (SMILES) | pIC50 [1] | pIC50 [2] | further results
26 | Cn1cc(-c2cnc3ccc(CCn4nc(-c5ccccc5F)ccc4=O)cc3c2)cn1 | 7.59 | 6.20 | –
27 | COC(=O)c1ccc(-c2ccc(=O)n(CCc3ccc4ncc(-c5cnn(C)c5)cc4c3)n2)cc1C(F)(F)F | 8.40 | 6.99 | –
28 | CNC(=O)c1ccc(-c2ccc(=O)n(CCc3ccc4ncc(-c5cnn(C6CCOCC6)c5)cc4c3)n2)cc1C(F)(F)F | 8.27 | – | pIC50 [3]: 6.78
29 | CNC(=O)c1ccc(-c2ccc(=O)n(CCc3ccc4ncc(-c5cnn(CCO)c5)cc4c3)n2)cc1C(F)(F)F | 8.55 | 6.94 | –
30 | CNC(=O)c1ccc(-c2ccc(=O)n(CCc3ccc4ncc(N5CCC(N6CCCC6)CC5)cc4c3)n2)cc1C(F)(F)F | 7.84 | 7.64 | –
31 | CNC(=O)c1ccc(-c2ccc(=O)n(CCc3ccc4ncc(-c5cnn(CCOC)c5)cc4c3)n2)cc1C(F)(F)F | 8.13 | 7.34 | –
32 | Cn1cc(-c2cnc3ccc(CCn4nc(-c5cccc(OC(F)(F)F)c5)ccc4=O)cc3c2)cn1 | 7.69 | 5.84 | –
33 | CNC(=O)c1ccc(-c2ccc(=O)n(CCc3ccc4ncc(N5CCC(N6CCOCC6)CC5)cc4c3)n2)cc1C(F)(F)F | 7.88 | 7.03 | –
34 | CNC(=O)c1ccc(-c2ccc(=O)n(CCc3ccc4ncc(NCCN5CCOCC5)cc4c3)n2)cc1C(F)(F)F | 7.74 | 6.43 | –
35 | O=C1NCCCCCn2cc(cn2)-c2cnc3ccc(cc3c2)CCn2nc(ccc2=O)-c2ccc1c(C(F)(F)F)c2 | 8.48 | 6.79 | Papp A→B at 2 h, 10 µM [4]: 0.29 ×10⁻⁶ cm/s
36 | Cc1ccc(-c2ccc(=O)n(CCc3ccc4ncc(-c5cnn(C)c5)cc4c3)n2)cc1 | 8.09 | 6.55 | –
37 | COc1cccc(-c2ccc(=O)n(CCc3ccc4ncc(-c5cnn(C)c5)cc4c3)n2)c1 | 7.83 | 5.87 | –
38 | O=c1ccc(-c2ccccc2)nn1CCc1ccc2ncccc2c1 | 5.70 | – | –
39 | Cn1cc(-c2ccc(-c3ccc(=O)n(Cc4ccc5ncccc5c4)n3)cc2)cn1 | < 5.00 | – | –
40 | O=c1ccc(-c2ccc(N3CCOCC3)cc2)nn1CCc1ccc2ncccc2c1 | 6.68 | – | –
41 | CNC(=O)c1ccc(-c2ccc(=O)n(CCc3ccc4ncc(-c5cnn(C)c5)cc4c3)n2)cc1C(F)(F)F | 8.32 | 7.92 | –
42 | O=c1ccc(-c2ccccc2)nn1Cc1ccc2ncc(N3CCOCC3)cc2c1 | 6.77 | – | –
43 | CNC(=O)c1ccc(-c2ccc(=O)n(CCc3ccc4ncc(-c5cnn(C)c5)cc4c3)n2)cc1 | 8.40 | 6.86 | –
44 | CNC(=O)c1ccc(-c2ccc(=O)n(CCc3ccc4ncc(N5CCC(N6CCN(C)CC6)CC5)cc4c3)n2)cc1C(F)(F)F | 7.86 | 7.32 | –
45 | Cn1cc(-c2cnc3ccc(CCn4nc(-c5ccc(C(=O)O)cc5)ccc4=O)cc3c2)cn1 | 8.00 | 5.60 | –
46 | CNC(=O)c1ccc(-c2ccc(=O)n(CCc3ccc4ncc(-c5cnn(C6CCNCC6)c5)cc4c3)n2)cc1C(F)(F)F | 8.38 | 7.70 | –
47 | CNC(=O)c1ccc(-c2ccc(=O)n(CCc3ccc4ncc(-c5cnn(CCN6CCOCC6)c5)cc4c3)n2)cc1C(F)(F)F | 8.30 | 6.73 | –
48 | CNC(=O)c1ccc(-c2ccc(=O)n(NC(=O)c3ccc4ncc(-c5cnn(C)c5)cc4c3)n2)cc1C(F)(F)F | 5.64 | 5.00 | –
49 | CN1CCC(COc2cnc(-c3cccc(Cn4nc(-c5cccc(C#N)c5)ccc4=O)c3)nc2)CC1 [TEPOTINIB] | – | 8.35 | pIC50 [5]: 8.06; pIC50 [6]: 8.00; pIC50 [7]: 8.60; pIC50 [8]: 8.82; pIC50 [9]: 7.44; pIC50 [10]: 7.33; pIC50 [11]: 5.51; pIC50 [12]: 5.62; pIC50 [13]: 5.84; pIC50 [14]: 6.44
50 | CNC(=O)c1ccc(-c2ccc(=O)n(CCc3ccc4ncc(NCCN5CCCCC5)cc4c3)n2)cc1C(F)(F)F | 7.58 | 6.37 | –
